From patent publication EP4667458A1 (Kanaph Therapeutics Inc., priority 2023, dated 2024)

molecular target: T1, KRAS^G12C::SOS1 (Homo sapiens, UniProt Q07889); assay: KRAS G12C::SOS1 protein-protein interaction (PPI) inhibition assay (HTRF binding kit)
T1 sequence (Q07889 1-1333): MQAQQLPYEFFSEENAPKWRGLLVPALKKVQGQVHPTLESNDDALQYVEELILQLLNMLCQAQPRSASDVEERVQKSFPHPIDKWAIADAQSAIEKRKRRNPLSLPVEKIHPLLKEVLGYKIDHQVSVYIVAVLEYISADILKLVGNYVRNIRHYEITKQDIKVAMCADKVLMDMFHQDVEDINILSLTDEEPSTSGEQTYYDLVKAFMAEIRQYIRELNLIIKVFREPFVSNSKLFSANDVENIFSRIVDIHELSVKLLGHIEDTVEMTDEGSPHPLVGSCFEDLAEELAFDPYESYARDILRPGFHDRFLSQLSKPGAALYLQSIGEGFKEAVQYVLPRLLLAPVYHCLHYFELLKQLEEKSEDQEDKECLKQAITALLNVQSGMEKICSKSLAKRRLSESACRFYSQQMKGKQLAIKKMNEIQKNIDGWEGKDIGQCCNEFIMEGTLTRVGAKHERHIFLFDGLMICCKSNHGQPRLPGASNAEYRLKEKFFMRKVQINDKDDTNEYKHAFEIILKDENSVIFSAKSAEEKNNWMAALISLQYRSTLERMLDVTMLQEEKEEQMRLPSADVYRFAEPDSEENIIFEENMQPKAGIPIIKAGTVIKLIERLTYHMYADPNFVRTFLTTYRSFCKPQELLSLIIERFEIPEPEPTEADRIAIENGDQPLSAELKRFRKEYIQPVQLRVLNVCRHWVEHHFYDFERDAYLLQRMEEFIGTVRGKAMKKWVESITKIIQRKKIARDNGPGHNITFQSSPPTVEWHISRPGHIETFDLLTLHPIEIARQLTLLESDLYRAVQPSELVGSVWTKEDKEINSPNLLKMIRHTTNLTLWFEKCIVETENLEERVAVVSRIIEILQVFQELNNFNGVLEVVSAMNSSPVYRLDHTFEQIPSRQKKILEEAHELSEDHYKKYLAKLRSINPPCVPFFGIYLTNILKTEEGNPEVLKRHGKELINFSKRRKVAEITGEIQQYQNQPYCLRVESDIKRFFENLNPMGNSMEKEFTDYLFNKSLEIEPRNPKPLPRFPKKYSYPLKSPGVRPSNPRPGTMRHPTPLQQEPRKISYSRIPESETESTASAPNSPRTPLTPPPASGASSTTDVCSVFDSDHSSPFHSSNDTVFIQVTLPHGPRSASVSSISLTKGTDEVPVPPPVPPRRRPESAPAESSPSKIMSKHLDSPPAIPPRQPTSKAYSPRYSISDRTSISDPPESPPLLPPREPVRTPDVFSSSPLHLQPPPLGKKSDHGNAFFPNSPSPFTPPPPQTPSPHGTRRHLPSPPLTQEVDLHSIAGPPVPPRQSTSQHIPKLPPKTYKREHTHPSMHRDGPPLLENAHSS

For `C[C@@H](NC(=O)c1ccc(=O)n(-c2cccc(C(=O)N3CCN(C)CC3)c2)n1)c1cc(N)cc(C(F)(F)F)c1` [Example 255, N-[(1R)-1-[3-amino-5-(trifluoromethyl)phenyl]ethyl]-1-[3-(4-methylpiperazine-1-carbonyl)phenyl]-6-oxo-pyridazine-3-carboxamide], which IC50 is on record?
The IC50 was less than 1 µM.

`CNCC(F)(F)c1cccc([C@@H](C)NC(=O)c2ccc(=O)n(-c3ccccc3F)n2)c1F` [Example 256, N-[(1R)-1-[3-[1,1-difluoro-2-(methylamino)ethyl]-2-fluorophenyl]ethyl]-1-(2-fluorophenyl)-6-oxo-pyridazine-3-carboxamide] was tested. Which IC50 did it give?
The IC50 was less than 1 µM.

`C[C@@H](NC(=O)c1ccc(=O)n(-c2ccccc2F)n1)c1cccc(C(F)(F)CN(C)C)c1F` [Example 257, N-[(1R)-1-[3-[2-(dimethylamino)-1,1-difluoro-ethyl]-2-fluorophenyl]ethyl]-1-(2-fluorophenyl)-6-oxo-pyridazine-3-carboxamide] was tested. Which IC50 did it give?
The IC50 was less than 1 µM.

With `C[C@@H](NC(=O)c1ccc(=O)n(-c2ccccc2F)n1)c1cccc(C(F)(F)CN(C)C)c1` [Example 258, N-[(1R)-1-[3-[2-(dimethylamino)-1,1-difluoro-ethyl]phenyl]ethyl]-1-(2-fluorophenyl)-6-oxo-pyridazine-3-carboxamide] as the compound, how does the IC50 read?
The IC50 was less than 1 µM.

For `C[C@@H](NC(=O)c1ccc(=O)n(-c2ccccc2F)n1)c1cccc(C(F)(F)F)c1F` [Example 259, 1-(2-fluorophenyl)-N-[(1R)-1-[2-fluoro-3-(trifluoromethyl)phenyl]ethyl]-6-oxo-pyridazine-3-carboxamide], which IC50 is on record?
The IC50 was less than 1 µM.

With `C[C@@H](NC(=O)c1ccc(=O)n(-c2ccccc2F)n1)c1cccc(C#N)c1F` [Example 260, N-[(1R)-1-(3-cyano-2-fluoro-phenyl)ethyl]-1-(2-fluorophenyl)-6-oxo-pyridazine-3-carboxamide] as the compound, how does the IC50 read?
The IC50 was less than 1 µM.

How did the IC50 turn out when `C[C@@H](NC(=O)c1ccc(=O)n(-c2ccccc2F)n1)c1cccc(F)c1Cl` [Example 261, N-[(1R)-1-(2-chloro-3-fluoro-phenyl)ethyl]-1-(2-fluorophenyl)-6-oxo-pyridazine-3-carboxamide] was run?
Its IC50 is greater than 10 µM.

`C[C@H](NC(=O)c1ccc(=O)n(-c2ccccc2F)n1)c1cccc(F)c1Cl` [Example 262, N-[(1S)-1-(2-chloro-3-fluorophenyl)ethyl]-1-(2-fluorophenyl)-6-oxo-pyridazine-3-carboxamide] was tested. Which IC50 did it give?
The IC50 was 1 to 10 µM.

For `C[C@@H](NC(=O)c1ccc(=O)n(-c2ccccc2F)c1)c1cc(N)cc(C(F)F)c1` [Example 263, N-[(1R)-1-[3-amino-5-(difluoromethyl)phenyl]ethyl]-1-(2-fluorophenyl)-6-oxo-pyridine-3-carboxamide], which IC50 is on record?
The IC50 was less than 1 µM.

How did the IC50 turn out when `C[C@@H](NC(=O)C1=NN(c2ccccc2)C(=O)CC1)c1cc(N)cc(C(F)(F)F)c1` [Example 264, N-[(1R)-1-[3-amino-5-(trifluoromethyl)phenyl]ethyl]-6-oxo-1-phenyl-4,5-dihydropyridazine-3-carboxamide] was run?
Its IC50 is less than 1 µM.

With `CNCc1cc2c(cc1-c1ccc([C@@H](C)NC(=O)c3ccc(=O)n(-c4ccccc4F)n3)s1)CC2` [Example 266, 1-(2-fluorophenyl)-N-[(1R)-1-[5-[4-(methylaminomethyl)-3-bicyclo [4.2.0]octa-1,3,5-trienyl]-2-thienyl]ethyl]-6-oxo-pyridazine-3-carboxamide] as the compound, how does the IC50 read?
Its IC50 is less than 1 µM.

With `CNCc1ccccc1-c1csc([C@@H](C)NC(=O)c2ccc(=O)n(-c3ccccc3F)n2)c1` [Example 267, 1-(2-fluorophenyl)-N-[(1R)-1-[4-[2-(methylaminomethyl)phenyl]-2-thienyl]ethyl]-6-oxo-pyridazine-3-carboxamide] as the compound, how does the IC50 read?
The IC50 was less than 1 µM.

With `CNCc1ccccc1-c1ccc([C@@H](C)NC(=O)c2nn(-c3ccccc3F)c(=O)c3cc[nH]c23)s1` [Example 268, 5-(2-fluorophenyl)-N-[(1R)-1-[5-[2-(methylaminomethyl)phenyl]-2-thienyl]ethyl]-4-oxo-1H-pyrrolo[2,3-d]pyridazine-7-carboxamide] as the compound, how does the IC50 read?
The IC50 was less than 1 µM.

`CNCc1ccccc1-c1ccc([C@@H](C)NC(=O)c2nn(-c3ccccc3F)c(=O)c3ccsc23)s1` [Example 269, 5-(2-fluorophenyl)-N-[(1R)-1-[5-[2-(methylaminomethyl)phenyl]-2-thienyl]ethyl]-4-oxo-thieno[2,3-d]pyridazine-7-carboxamide] was tested. Which IC50 did it give?
Its IC50 is less than 1 µM.

With `CNCc1ccc(Cl)cc1-c1ccc([C@@H](C)NC(=O)c2ccc(=O)n(-c3cccnc3F)n2)s1` [Example 270, N-[(1R)-1-[5-[5-chloro-2-(methylaminomethyl)phenyl]-2-thienyl]ethyl]-1-(2-fluoro-3-pyridyl)-6-oxo-pyridazine-3-carboxamide] as the compound, how does the IC50 read?
The IC50 was less than 1 µM.

With `CNCc1ccc(Cl)cc1-c1ccc([C@@H](C)NC(=O)c2ccc(=O)n(-c3cccnc3NC)n2)s1` [Example 271, N-[(1R)-1-[5-[5-chloro-2-(methylaminomethyl)phenyl]-2-thienyl]ethyl]-1-[2-(methylamino)-3-pyridyl]-6-oxo-pyridazine-3-carboxamide] as the compound, how does the IC50 read?
Its IC50 is less than 1 µM.

Which IC50 does the source give for `CNCc1ccc(C)cc1-c1ccc([C@@H](C)NC(=O)c2ccc(=O)n(-c3cccnc3F)c2)s1` [Example 272, 1-(2-fluoro-3-pyridyl)-N-[(1R)-1-[5-[5-methyl-2-(methylaminomethyl)phenyl]-2-thienyl]ethyl]-6-oxo-pyridine-3-carboxamide] here?
Its IC50 is less than 1 µM.

For `CNCc1cc2c(cc1-c1ccc([C@@H](C)NC(=O)c3ccc(=O)n(-c4ccccc4F)c3)s1)CCC2` [Example 273, 1-(2-fluorophenyl)-N-[(1R)-1-[5-[6-(methylaminomethyl)indan-5-yl]-2-thienyl]ethyl]-6-oxo-pyridine-3-carboxamide], which IC50 is on record?
The IC50 was less than 1 µM.

`CNCc1cc2c(cc1-c1ccc([C@@H](C)NC(=O)c3ccc(=O)n(-c4ccccc4F)n3)s1)CCC2` [Example 274, 1-(2-fluorophenyl)-N-[(1R)-1-[5-[6-(methylaminomethyl)indan-5-yl]-2-thienyl]ethyl]-6-oxo-pyridazine-3-carboxamide] was tested. Which IC50 did it give?
The IC50 was less than 1 µM.

`CNCc1ccccc1-c1ccc([C@@H](C)NC(=O)c2nn(-c3cnn(C)c3)c(=O)c3cc[nH]c23)s1` [Example 275, N-[(1R)-1-[5-[2-(methylaminomethyl)phenyl]-2-thienyl]ethyl]-5-(1-methylpyrazol-4-yl)-4-oxo-1H-pyrrolo[2,3-d]pyridazine-7-carboxamide] was tested. Which IC50 did it give?
Its IC50 is less than 1 µM.

With `CNCc1cc2c(cc1-c1ccc([C@@H](C)NC(=O)c3ccc(=O)n(-c4ccccc4F)c3)s1)CC2` [Example 276, 1-(2-fluorophenyl)-N-[(1R)-1-[5-[4-(methylaminomethyl)-3-bicyclo[4.2.0]octa-1,3,5-trienyl]-2-thienyl]ethyl]-6-oxo-pyridine-3-carboxamide] as the compound, how does the IC50 read?
The IC50 was less than 1 µM.

With `CNCc1ccc(Cl)cc1-c1ccc([C@@H](C)NC(=O)c2ccc(=O)n(-c3cccnc3F)c2)s1` [Example 277, N-[(1R)-1-[5-[5-chloro-2-(methylaminomethyl)phenyl]-2-thienyl]ethyl]-1-(2-fluoro-3-pyridyl)-6-oxo-pyridine-3-carboxamide] as the compound, how does the IC50 read?
Its IC50 is less than 1 µM.

`CNCc1ccccc1-c1ccc([C@@H](C)NC(=O)c2ccc(=O)n(-c3cnn(C)c3)n2)s1` [Example 278, N-[(1R)-1-[5-[2-(methylaminomethyl)phenyl]-2-thienyl]ethyl]-1-(1-methylpyrazol-4-yl)-6-oxo-pyridazine-3-carboxamide] was tested. Which IC50 did it give?
Its IC50 is less than 1 µM.

Which IC50 does the source give for `CNCc1cc(F)ccc1-c1ccc([C@@H](C)NC(=O)c2ccc(=O)n(-c3ccccc3F)n2)s1` [Example 279, N-[(1R)-1-[5-[4-fluoro-2-(methylaminomethyl)phenyl]-2-thienyl]ethyl]-1-(2-fluorophenyl)-6-oxo-pyridazine-3-carboxamide] here?
Its IC50 is less than 1 µM.

For `CNCc1cc(F)ccc1-c1ccc([C@@H](C)NC(=O)c2ccc(=O)n(-c3ccccc3F)c2)s1` [Example 280, N-[(1R)-1-[5-[4-fluoro-2-(methylaminomethyl)phenyl]-2-thienyl]ethyl]-1-(2-fluorophenyl)-6-oxo-pyridine-3-carboxamide], which IC50 is on record?
The IC50 was less than 1 µM.

How did the IC50 turn out when `CNCc1cc(Cl)ccc1-c1ccc([C@@H](C)NC(=O)c2ccc(=O)n(-c3ccccc3F)n2)s1` [Example 281, N-[(1R)-1-[5-[4-chloro-2-(methylaminomethyl)phenyl]-2-thienyl]ethyl]-1-(2-fluorophenyl)-6-oxo-pyridazine-3-carboxamide] was run?
The IC50 was less than 1 µM.
